Measured values: ChEMBL document CHEMBL3228023, “Paradoxical effects of N-cyanoalkyl substituents upon the activities of several classes of opioids” (J Med Chem, 1979)
Where a name gives a salt, the structure may show the parent alone. The source made the active and inactive calls. The calls are words filed in the database; no cut-off is given here.

Assays:
[1] = Acute toxicity in sc dosed mouse; type: organism-based; conditions: in vivo
Mus musculus [2] = assay: Ratio of morphine ED50 to compound ED50 for antinociceptive activity in sc dosed mouse by Eddy-hot plate assay; type: functional
Mus musculus [3] = assay: Antinociceptive activity in Swiss-webster mouse at 1.6 umol/kg, sc by tail-flick assay; type: functional
Mus musculus [4] = assay: Antinociceptive activity in Swiss-webster mouse at 1.6 umol/kg, sc by tail-flick assay in presence of 0.08 to 8.5 umol/kg naloxone; type: functional, organism-based
Mus musculus [5] = assay: Antinociceptive activity in sc dosed mouse by Eddy-hot plate assay in presence of naloxone; type: functional, organism-based
Rhesus monkey [6] = assay: Acute toxicity in rhesus monkey assessed as minimal CNS depression at 1.5 to 12 mg/kg by single-dose suppression test; type: organism-based, Macaca mulatta, Central nervous system; design: dose 1.5-12 mg/kg; conditions: in vivo
Rhesus monkey [7] = assay: Acute toxicity in rhesus monkey assessed as CNS depression at 0.625 to 5 mg/kg by single-dose suppression test in presence of naloxone; type: organism-based, Macaca mulatta, Central nervous system; design: dose 0.625-5 mg/kg; conditions: in vivo
Opioid receptor = Opioid receptor (Rattus norvegicus, UniProt P33533+P34975+P33535); assay: Binding affinity to opiate receptor in rat brain homogenates; type: tissue-based
Mus musculus [8] = assay: Antinociceptive activity in sc dosed mouse by Eddy-hot plate assay; type: functional
Mus musculus [9] = assay: Antinociceptive activity in sc dosed mouse by Nilsen assay; type: functional
Rhesus monkey [10] = assay: Acute toxicity in rhesus monkey assessed as CNS depression at 0.625 to 5 mg/kg by single-dose suppression test; type: organism-based, Macaca mulatta, Central nervous system; design: dose 0.625-5 mg/kg; conditions: in vivo
[11] = Binding affinity to opiate receptor in mouse/rat NG108-15 hybrid cells
[12] = Therapeutic ratio of LD50 for sc dosed mouse to ED50 for antinociceptive activity in sc dosed mouse by Eddy-hot plate assay; conditions: in vivo
Rhesus monkey [13] = assay: Acute toxicity in rhesus monkey assessed as rigidity at 2.56 mg/kg by single-dose suppression test; type: organism-based, Macaca mulatta; design: dose 2.56 mg/kg; conditions: in vivo
Rhesus monkey [14] = assay: Acute toxicity in rhesus monkey assessed as ataxia at 0.32 to 2.56 mg/kg by single-dose suppression test; type: organism-based, Macaca mulatta; design: dose 0.32-2.56 mg/kg; conditions: in vivo
Rhesus monkey [15] = assay: Narcotic antagonist activity in rhesus monkey at 0.32 to 1.28 mg/kg by precipitated withdrawal test; type: organism-based, Macaca mulatta; design: dose 0.32-1.28 mg/kg; conditions: in vivo
Rhesus monkey [16] = assay: Acute toxicity in rhesus monkey assessed as tremors at 0.64 to 2.56 mg/kg by single-dose suppression test; type: organism-based, Macaca mulatta; design: dose 0.64-2.56 mg/kg; conditions: in vivo
Rhesus monkey [17] = assay: Physical dependence capacity in rhesus monkey at 0.16 to 2.56 mg/kg by single-dose suppression test; type: ADME, organism-based, Macaca mulatta; design: dose 0.16-2.56 mg/kg; conditions: in vivo
Rhesus monkey [18] = assay: Acute toxicity in rhesus monkey at 3 to 12 mg/kg by single-dose suppression test; type: organism-based, Macaca mulatta; design: dose 3-12 mg/kg; conditions: in vivo
Rhesus monkey [19] = assay: Physical dependence capacity in rhesus monkey at 12 mg/kg by single-dose suppression test; type: ADME, organism-based, Macaca mulatta; design: dose 12 mg/kg; conditions: in vivo
Rhesus monkey [20] = assay: Acute toxicity in rhesus monkey assessed as salivation at 0.25 to 2 mg/kg by single-dose suppression test; type: organism-based, Macaca mulatta; design: dose 0.25-2 mg/kg; conditions: in vivo
Rhesus monkey [21] = assay: Acute toxicity in rhesus monkey assessed as head tremors, covulsiona, ataxia at 2 mg/kg by single-dose suppression test; type: organism-based, Macaca mulatta; design: dose 2 mg/kg; conditions: in vivo
Rhesus monkey [22] = assay: Acute toxicity in rhesus monkey assessed as minimal CNS depression at 1.5 to 36 mg/kg by single-dose suppression test; type: organism-based, Macaca mulatta, Central nervous system; design: dose 1.5-36 mg/kg; conditions: in vivo
Rhesus monkey [23] = assay: Acute toxicity in rhesus monkey assessed as tremors at 36 mg/kg by single-dose suppression test; type: organism-based, Macaca mulatta; design: dose 36 mg/kg; conditions: in vivo
Rhesus monkey [24] = assay: Narcotic antagonist activity in rhesus monkey […]; type: organism-based, Macaca mulatta; conditions: in vivo
Rhesus monkey [25] = assay: Acute toxicity in rhesus monkey assessed as withdrawal signs at 96 mg/kg by single-dose suppression test; type: organism-based, Macaca mulatta; design: dose 96 mg/kg; conditions: in vivo
Rhesus monkey [26] = assay: Acute toxicity in rhesus monkey assessed as withdrawal signs at 24 to 96 mg/kg by precipitated withdrawal test; type: organism-based, Macaca mulatta; design: dose 24-96 mg/kg; conditions: in vivo
Mus musculus [27] = assay: Antinociceptive activity in mouse at 100 mg/kg, sc by Eddy-hot plate assay; type: functional, organism-based; design: dose 100 mg/kg
Rhesus monkey [28] = assay: Acute toxicity in rhesus monkey assessed as ataxia and mild stupor at 1 to 2 mg/kg by single-dose suppression test; type: organism-based, Macaca mulatta; design: dose 1-2 mg/kg; conditions: in vivo
Rhesus monkey [29] = assay: Narcotic antagonist activity in rhesus monkey at 1 to 2 mg/kg by precipitated withdrawal test; type: organism-based, Macaca mulatta; design: dose 1-2 mg/kg; conditions: in vivo
Mus musculus [30] = assay: Antinociceptive activity in mouse at 100 mg/kg, sc by Nilsen assay; type: functional, organism-based; design: dose 100 mg/kg
Rhesus monkey [31] = assay: Acute toxicity in rhesus monkey at 10 to 40 mg/kg by single-dose suppression test; type: organism-based, Macaca mulatta; design: dose 10-40 mg/kg; conditions: in vivo
Mus musculus [32] = species: Mus musculus
Rhesus monkey [33] = assay: Acute toxicity in rhesus monkey assessed as salivation at 0.005 to 0.02 mg/kg by single-dose suppression test; type: organism-based, Macaca mulatta; design: dose 0.005-0.02 mg/kg; conditions: in vivo
Rhesus monkey [34] = assay: Acute toxicity in rhesus monkey assessed as exacerbation of withdrawal at 0.005 to 0.04 mg/kg by single-dose suppression test; type: organism-based, Macaca mulatta; design: dose 0.005-0.04 mg/kg; conditions: in vivo
Mus musculus [35] = assay: Ratio of morphine ED50 to compound ED50 for antinociceptive activity in sc dosed mouse by Nilsen assay; type: functional
[36] = Mus musculus, sc, read-out: ED50

Cl.N#CCCN1CC[C@]23CCCCC2C1Cc1ccc(O)cc13.O (stereo partly specified)
LD50 [1]: 534 mg/kg
Ratio ED50 (Mus musculus [2]): 50
Activity (Mus musculus [3]): 100%

N#CCCN1CC[C@]23CCCCC2C1Cc1ccc(O)cc13 (stereo partly specified)
Activity (Mus musculus [4]): inactive
Activity (Mus musculus [5]): inactive

C[C@H]1C2Cc3ccc(O)cc3C1(C)CCN2CCC#N (single isomer, unassigned; (+)) [listing 1 of 2 here]
Activity (Rhesus monkey [6]): Toxic

C[C@H]1C2Cc3ccc(O)cc3C1(C)CCN2CC#N (mixture of isomers)
Activity (Rhesus monkey [7]): Toxic
EC50 (Opioid receptor): 20000 nM
ED50 (Mus musculus [8]; [36]): 22.2 µmol/kg
ED50 (Mus musculus [9]; [36]): 39.1 µmol/kg
Activity (Rhesus monkey [10]): Toxic

CN1CC[C@]23c4c5ccc(O)c4O[C@H]2[C@@H](O)C=C[C@H]3[C@H]1C5
ED50 (Mus musculus [8]; [36]): 3.3 µmol/kg
ED50 (Mus musculus [9]; [36]): 4.1 µmol/kg
EC50 [11]: 1500 nM

C[C@H]1C2Cc3ccc(O)cc3C1(C)CCN2CCC#N (single isomer, unassigned; (-))
selectivity ratio [12]: 13000
Activity (Rhesus monkey [13]): Toxic
Activity (Rhesus monkey [14]): Toxic
EC50 (Opioid receptor): 3000 nM
Activity (Rhesus monkey [15]): Toxic
ED50 (Mus musculus [8]): 0.11 µmol/kg
Activity (Rhesus monkey [16]): Toxic
ED50 (Mus musculus [9]): 0.03 µmol/kg
EC50 [11]: 80 nM
Activity (Rhesus monkey [17]): Non-toxic

COc1ccc2c3c1O[C@H]1[C@@H](O)C=C[C@H]4[C@@H](C2)N(C)CC[C@@]341.COc1ccc2c3c1O[C@H]1[C@@H](O)C=C[C@H]4[C@@H](C2)N(C)CC[C@@]341.O.O=P(O)(O)O.O=P(O)(O)O [CODEINE PHOSPHATE]
Activity (Rhesus monkey [18]): Toxic
ED50 (Mus musculus [8]; [36]): 14.6 µmol/kg
Activity (Rhesus monkey [19]): Toxic
ED50 (Mus musculus [9]; [36]): 20.4 µmol/kg

C[C@H]1C2Cc3ccc(O)cc3C1(C)CCN2CCC#N (mixture of isomers)
EC50 (Opioid receptor): 3000 nM
ED50 (Mus musculus [8]): 0.26 µmol/kg
Activity (Rhesus monkey [20]): Toxic
ED50 (Mus musculus [9]): 0.31 µmol/kg
Activity (Rhesus monkey [21]): Toxic

N#CCCN1CC[C@]23c4c5ccc(O)c4O[C@H]2[C@@H](O)C=CC3C1C5 (single isomer, unassigned; (-))
EC50 (Opioid receptor): 20000 nM
Activity (Rhesus monkey [22]): Toxic
Activity (Rhesus monkey [23]): Toxic
ED50 (Mus musculus [8]; [36]): 8.3 µmol/kg
ED50 (Mus musculus [9]; [36]): 33 µmol/kg
EC50 [11]: 1000 nM
Activity (Rhesus monkey [24]): Toxic

COc1ccc2c3c1O[C@H]1[C@@H](O)C=CC4C(C2)N(CCC#N)CC[C@@]341 (single isomer, unassigned; (-))
EC50 (Opioid receptor): 700000 nM
Activity (Rhesus monkey [25]): Toxic
Activity (Rhesus monkey [26]): Toxic

Br.CC1C2Cc3ccc(O)cc3C1(C)CCN2C (single isomer, unassigned; (-))
EC50 (Opioid receptor): 4000 nM
ED50 (Mus musculus [8]; [36]): 2 µmol/kg
ED50 (Mus musculus [9]; [36]): 1.5 µmol/kg
EC50 [11]: 400 nM

C[C@H]1C2Cc3ccc(O)cc3C1(C)CCN2CCC#N (single isomer, unassigned; (+)) [listing 2 of 2 here]
Activity (Mus musculus [27]): inactive

C[C@H]1C2Cc3ccc(O)cc3C1(C)CCN2CCCC#N (mixture of isomers)
EC50 (Opioid receptor): 4000 nM
ED50 (Mus musculus [8]; [36]): 2.4 µmol/kg
ED50 (Mus musculus [9]; [36]): 1.5 µmol/kg
Activity (Rhesus monkey [28]): Toxic
Activity (Rhesus monkey [29]): Toxic

Br.C[C@H]1C2Cc3ccc(O)cc3C1(C)CCN2CCC#N (single isomer, unassigned; (-))
LD50 [1]: 489 mg/kg

COc1ccc2c3c1O[C@H]1C(=O)CC[C@@]4(O)C(C2)N(CCC#N)CC[C@]314 (single isomer, unassigned; (-))
EC50 (Opioid receptor): 60000 nM
Activity (Mus musculus [30]): inactive
Activity (Rhesus monkey [31]): Non-toxic
ED50 (Mus musculus [32]): inactive

CN1CC[C@]23c4c5ccc(O)c4O[C@H]2C(=O)CC[C@@]3(O)[C@H]1C5 [OXYMORPHONE HYDROCHLORIDE]
ED50 (Mus musculus [8]; [36]): 0.27 µmol/kg

N#CCCN1CC[C@]23CCCCC2C1Cc1ccc(O)cc13 (single isomer, unassigned; (-))
selectivity ratio [12]: 23000
EC50 (Opioid receptor): 1500 nM
ED50 (Mus musculus [8]; [36]): 0.07 µmol/kg
Activity (Rhesus monkey [33]): Toxic
Activity (Rhesus monkey [34]): Toxic
ED50 (Mus musculus [9]; [36]): 0.14 µmol/kg
EC50 [11]: 15 nM

N#CCN1CC[C@]23CCCCC2C1Cc1ccc(O)cc13 (single isomer, unassigned; (-))
EC50 (Opioid receptor): 7000 nM
ED50 (Mus musculus [8]; [36]): 5.3 µmol/kg
ED50 (Mus musculus [9]; [36]): 13.2 µmol/kg

CN1CC[C@]23CCCC[C@H]2[C@H]1Cc1ccc(O)cc13.O=C(O)C(O)C(O)C(=O)O
EC50 (Opioid receptor): 700 nM
ED50 (Mus musculus [8]; [36]): 0.49 µmol/kg
ED50 (Mus musculus [9]; [36]): 0.54 µmol/kg
EC50 [11]: 200 nM

N#CCCN1CC[C@]23CCCCC2C1Cc1ccc(O)cc13 (single isomer, unassigned; (+))
Activity (Mus musculus [27]): inactive

Br.C[C@H]1C2Cc3ccc(O)cc3C1(C)CCN2CCC#N (mixture of isomers)
Ratio ED50 (Mus musculus [35]): 12
Ratio ED50 (Mus musculus [2]): 12
